According to patent US20260043793A1, “MICROFLUIDIC CELL SPHEROIDS AND ORGANOIDS CULTURE INSERT FOR DISEASE MODELING AND SCREENING OF THERAPEUTICS” (APRICELL BIOTECHNOLOGY INC., priority 2022, published 2026):

What was measured:
Assay type in all cases: cell-based
vimentin surface marker = experiment: Vimentin immunostaining of U251 spheroids (resistant and non-resistant) in collagen/HA ECM; conditions: 10 nm of Reelin, non-resistant in comparison to resistant spheroids
Source text: The effect of recombinant Reelin on viability of the U251 cell spheroids or organoids was studied. […] Moreover, to study the invasive behavior of the resistant and non-resistant cell spheroids or organoids, they were embedded in Collagen/HA hydrogel. The method of cell spheroids or organoid embedding in the hydrogel is similar to that disclosed in example 1. In this study, the effect of Reelin protein in combination with ECM hydrogel on invasiveness of the cell spheroids or organoids and their invasion length using Vimentin immunostaining and florescent microscopy respectively was studied.
Level of surface vimentin expression of the tumor cells was measured as an indication of invasiveness of cell spheroids or organoids with the ECM matrix.

[1] = test system: TMZ resistant U251 cell spheroids or organoids; experiment: Growth and invasion of TMZ resistant U251 spheroids in Collagen/HA ECM conditioned with Reelin; conditions: for average invasion length: Collagen/HA matrix
Description: (§1) To investigate and compare the invasive behavior of TMZ resistant GBM cancer cells with non-resistant cell spheroids or organoids through the ECM hydrogel, we used TMZ resistant and non-resistant U251 cell lines to make cell spheroids or organoids in the device 10 or the sector 20. The method of U251 cell spheroids or organoid formation was similar to that disclosed above.
(§2) The effect of recombinant Reelin on viability of the U251 cell spheroids or organoids was studied. It was tested with 2 different concentrations of Reelin (1 and 100 nM) on cell spheroids or organoids in the device 10 or the sector 20. Moreover, to study the invasive behavior of the resistant and non-resistant cell spheroids or organoids, they were embedded in Collagen/HA hydrogel. The method of cell spheroids or organoid embedding in the hydrogel is similar to that disclosed in example 1. In this study, the effect of Reelin protein in combination with ECM hydrogel on invasiveness of the cell spheroids or organoids and their invasion length using Vimentin immunostaining and florescent microscopy respectively was studied.

[2] = test system: U251 cell spheroids or organoids; experiment: Effect of recombinant Reelin on viability of U251 spheroids (live-dead); conditions: increasing Reelin concentration from 1 to 100 nM
Description: as §2
It is shown in live-dead fluorescent images by increasing the number of red cells stained with Propodeum iodide (PI) compared to the green cells stained with calcein AM after treatment with 100 nM Reelin.

[3] = test system: TMZ non-resistant U251 cell spheroids or organoids; experiment: Growth and invasion of TMZ non-resistant U251 spheroids in Collagen/HA ECM conditioned with Reelin
Description: as §1, §2

[4] = 10 nM Reelin, in response to TMZ

With “Reelin: recombinant Reelin protein used alone or in combination with ECM hydrogel” the “fluorescent intensity index of the vimentin surface marker” value (vimentin surface marker) was “higher fluorescent intensity index”, the average invasion length ([1]; 10 nM Reelin) was “around 400 μm” and the “invasion length in Reelin conditioned matrix compared to normal matrix” value [1, 4] was “reverse”. The average invasion length ([1]; 100 nM Reelin) was “drops significantly”, the “inhibitory effect on growth (diameter)” value ([1]; higher concentrations of Reelin, day 3, compared with non-resistant) was “less” and the cell viability [2] was “significant decrease in cell viability”. The “invasion length in Reelin treated matrix compared to normal ECM matrix” value [3, 4] was “higher invasion length”, the “size increase of spheroids over time (diameter)” value ([3]; each Reelin concentration, day 0 to 3, compared with resistant spheroids) was “more significant” and the “growth of cell spheroids or organoids (diameter)” value ([3]; higher concentrations of Reelin, day 3) was “more inhibitory effect on the growth”. For the same substance, the invasion length ([3]; increasing concentrations of Reelin, Collagen/HA matrix) was “constantly increasing”.
